Data set [1] addresses T1, Dual specificity tyrosine-phosphorylation-regulated kinase 2 (Homo sapiens, UniProt Q92630).
T1 sequence (Q92630 whole entry): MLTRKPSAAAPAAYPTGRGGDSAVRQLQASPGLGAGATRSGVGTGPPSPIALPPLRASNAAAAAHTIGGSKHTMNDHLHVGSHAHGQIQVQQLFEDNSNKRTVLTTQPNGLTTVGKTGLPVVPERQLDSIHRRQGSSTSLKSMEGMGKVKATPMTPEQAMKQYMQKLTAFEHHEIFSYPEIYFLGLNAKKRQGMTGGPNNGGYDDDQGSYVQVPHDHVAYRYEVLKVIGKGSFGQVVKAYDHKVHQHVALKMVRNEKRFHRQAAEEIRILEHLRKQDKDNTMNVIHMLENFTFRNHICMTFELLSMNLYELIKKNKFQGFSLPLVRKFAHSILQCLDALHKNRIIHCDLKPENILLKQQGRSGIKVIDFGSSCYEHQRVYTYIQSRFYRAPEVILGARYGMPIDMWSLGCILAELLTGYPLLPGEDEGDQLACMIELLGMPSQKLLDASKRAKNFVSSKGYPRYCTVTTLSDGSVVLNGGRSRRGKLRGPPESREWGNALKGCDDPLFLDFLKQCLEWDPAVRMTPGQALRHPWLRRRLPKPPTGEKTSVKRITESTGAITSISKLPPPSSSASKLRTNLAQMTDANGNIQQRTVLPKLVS

Data set [2] addresses Dual specificity protein kinase CLK1 (Homo sapiens, UniProt P49759). Kind of data set: Inhibition of human CLK1 using myelin basic protein as substrate in presence of [gamma-33p]-ATP by radiometric hotspot kinase.
For data set [3], the target named is Dual specificity tyrosine-phosphorylation-regulated kinase 1A (Homo sapiens, UniProt Q13627).
For data set [4], the target named is Dual specificity protein kinase CLK3 (Homo sapiens, UniProt P49761). In words: Inhibition of human CLK3 using myelin basic protein as substrate in presence of [gamma-33p]-ATP by radiometric hotspot kinase.
Chain of Dual specificity protein kinase CLK3 (P49761 whole entry): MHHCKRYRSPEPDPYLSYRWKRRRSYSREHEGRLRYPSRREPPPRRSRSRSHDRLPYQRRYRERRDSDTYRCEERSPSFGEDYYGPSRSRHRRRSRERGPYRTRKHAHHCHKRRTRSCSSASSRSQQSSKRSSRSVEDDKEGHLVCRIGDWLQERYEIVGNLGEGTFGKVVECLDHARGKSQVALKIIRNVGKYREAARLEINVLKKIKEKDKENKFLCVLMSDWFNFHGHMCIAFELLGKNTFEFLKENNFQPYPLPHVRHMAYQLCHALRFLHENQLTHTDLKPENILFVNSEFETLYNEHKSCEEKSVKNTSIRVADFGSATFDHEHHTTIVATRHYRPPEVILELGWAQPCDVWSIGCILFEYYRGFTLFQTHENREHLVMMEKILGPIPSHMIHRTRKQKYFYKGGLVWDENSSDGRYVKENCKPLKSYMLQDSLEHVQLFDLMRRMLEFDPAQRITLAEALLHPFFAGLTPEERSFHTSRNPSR
Data set [5] has as its target T2, Dual specificity tyrosine-phosphorylation-regulated kinase 3 (Homo sapiens, UniProt O43781).
T2 sequence (O43781 whole entry): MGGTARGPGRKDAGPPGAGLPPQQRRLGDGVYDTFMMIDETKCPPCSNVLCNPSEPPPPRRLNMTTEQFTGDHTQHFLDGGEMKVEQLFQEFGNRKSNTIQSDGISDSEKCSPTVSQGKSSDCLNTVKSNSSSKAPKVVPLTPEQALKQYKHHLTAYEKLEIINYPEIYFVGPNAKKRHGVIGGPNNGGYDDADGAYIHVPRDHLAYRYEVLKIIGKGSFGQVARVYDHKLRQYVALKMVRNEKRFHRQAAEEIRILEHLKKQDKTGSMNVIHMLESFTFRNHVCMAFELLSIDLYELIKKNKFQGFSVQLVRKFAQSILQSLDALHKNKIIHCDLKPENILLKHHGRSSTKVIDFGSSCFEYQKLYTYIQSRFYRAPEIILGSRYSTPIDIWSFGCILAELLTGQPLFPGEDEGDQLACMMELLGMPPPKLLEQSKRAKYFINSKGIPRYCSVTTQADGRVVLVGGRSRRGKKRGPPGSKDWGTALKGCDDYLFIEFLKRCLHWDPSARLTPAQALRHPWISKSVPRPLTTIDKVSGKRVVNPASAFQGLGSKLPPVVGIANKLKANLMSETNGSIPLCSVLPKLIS

Data set [6] has as its target Dual specificity tyrosine-phosphorylation-regulated kinase 1B (Homo sapiens, UniProt Q9Y463).
The target of data set [7] is T3, SRSF protein kinase 3 (Homo sapiens, UniProt Q9UPE1).
T3 sequence (Q9UPE1 whole entry): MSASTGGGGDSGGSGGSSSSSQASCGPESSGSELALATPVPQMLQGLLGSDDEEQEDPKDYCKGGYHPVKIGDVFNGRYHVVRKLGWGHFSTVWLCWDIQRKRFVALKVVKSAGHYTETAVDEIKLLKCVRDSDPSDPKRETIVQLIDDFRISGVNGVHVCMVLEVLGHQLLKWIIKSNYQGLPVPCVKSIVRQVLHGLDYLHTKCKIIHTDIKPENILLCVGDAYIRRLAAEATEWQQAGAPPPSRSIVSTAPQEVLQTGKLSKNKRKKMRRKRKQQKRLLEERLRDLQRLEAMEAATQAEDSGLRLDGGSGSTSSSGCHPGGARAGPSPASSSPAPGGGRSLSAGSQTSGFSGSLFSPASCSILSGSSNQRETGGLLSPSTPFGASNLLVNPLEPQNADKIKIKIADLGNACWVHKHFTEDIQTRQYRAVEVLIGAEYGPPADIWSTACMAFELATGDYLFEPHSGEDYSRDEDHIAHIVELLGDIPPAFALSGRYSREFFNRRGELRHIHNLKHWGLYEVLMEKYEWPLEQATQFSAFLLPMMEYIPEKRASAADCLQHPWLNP
Description: Inhibition of N-terminal nLuc-fused SRPK3 (unknown origin) transfected in intact HEK293T cells by NanoBRET assay
Data set [8] has as its target T4, SRSF protein kinase 2 (Homo sapiens, UniProt P78362).
Target sequence in this assay (P78362 whole entry, the tested form may be a part): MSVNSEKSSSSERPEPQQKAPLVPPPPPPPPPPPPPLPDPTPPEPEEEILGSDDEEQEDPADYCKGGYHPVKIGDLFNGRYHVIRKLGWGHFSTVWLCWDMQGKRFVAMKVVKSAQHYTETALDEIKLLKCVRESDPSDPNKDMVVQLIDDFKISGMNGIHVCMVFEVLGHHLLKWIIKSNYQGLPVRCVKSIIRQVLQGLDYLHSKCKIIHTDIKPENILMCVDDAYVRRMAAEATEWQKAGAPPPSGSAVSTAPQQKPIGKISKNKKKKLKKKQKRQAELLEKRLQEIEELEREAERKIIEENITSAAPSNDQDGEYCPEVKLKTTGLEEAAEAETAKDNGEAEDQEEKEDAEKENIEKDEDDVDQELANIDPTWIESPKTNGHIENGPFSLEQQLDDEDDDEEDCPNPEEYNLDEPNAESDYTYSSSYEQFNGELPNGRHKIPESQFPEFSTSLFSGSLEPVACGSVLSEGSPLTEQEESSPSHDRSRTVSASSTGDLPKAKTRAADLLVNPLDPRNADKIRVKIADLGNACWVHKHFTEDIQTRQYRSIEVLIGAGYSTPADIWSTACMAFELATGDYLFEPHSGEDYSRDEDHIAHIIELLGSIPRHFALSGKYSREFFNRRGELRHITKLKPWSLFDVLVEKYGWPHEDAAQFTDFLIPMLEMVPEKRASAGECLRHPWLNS
Description: Inhibition of N-terminal nLuc-fused SRPK2 (unknown origin) transfected in lysed HEK293T cells by NanoBRET assay
In data set [9] the target is T5, SRSF protein kinase 1 (Homo sapiens, UniProt Q96SB4). In words: Inhibition of C-terminal nLuc-fused SRPK1 (unknown origin) transfected in intact HEK293T cells by NanoBRET assay.
T5 sequence (Q96SB4 whole entry, the tested form may be a part): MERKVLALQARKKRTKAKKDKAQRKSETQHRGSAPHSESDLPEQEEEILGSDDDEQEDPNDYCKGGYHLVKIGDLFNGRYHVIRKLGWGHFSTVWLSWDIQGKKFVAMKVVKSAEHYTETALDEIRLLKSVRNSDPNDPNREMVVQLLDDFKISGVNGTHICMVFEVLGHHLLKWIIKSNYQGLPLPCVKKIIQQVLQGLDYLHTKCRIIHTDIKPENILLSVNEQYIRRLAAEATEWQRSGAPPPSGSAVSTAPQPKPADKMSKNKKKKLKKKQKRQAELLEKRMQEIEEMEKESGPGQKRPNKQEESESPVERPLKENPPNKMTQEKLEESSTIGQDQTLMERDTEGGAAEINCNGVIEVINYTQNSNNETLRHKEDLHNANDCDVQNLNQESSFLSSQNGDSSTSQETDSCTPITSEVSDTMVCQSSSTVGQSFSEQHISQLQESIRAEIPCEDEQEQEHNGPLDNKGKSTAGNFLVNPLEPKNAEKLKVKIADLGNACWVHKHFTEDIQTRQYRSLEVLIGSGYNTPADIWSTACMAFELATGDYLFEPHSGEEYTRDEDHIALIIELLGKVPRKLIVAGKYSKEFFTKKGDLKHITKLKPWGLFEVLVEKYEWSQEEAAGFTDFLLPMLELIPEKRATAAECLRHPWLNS
Data set [10] addresses T4, SRSF protein kinase 2. The source holds these as a separate data set.
Target sequence in this assay (P78362 whole entry, the tested form may be a part): as the sequence (P78362 whole entry, the tested form may be a part) above
Data set [11] deals with T3, SRSF protein kinase 3. The source holds these as a separate data set.
The target in data set [12] is T5, SRSF protein kinase 1.
Data set [13] has as its target Dual specificity protein kinase CLK4 (Homo sapiens, UniProt Q9HAZ1). In words: Inhibition of human CLK4 using myelin basic protein as substrate in presence of [gamma-33p]-ATP by radiometric hotspot kinase.
Data set [14] has as its target Dual specificity protein kinase CLK2 (Homo sapiens, UniProt P49760). In words: Inhibition of human CLK2 using myelin basic protein as substrate in presence of [gamma-33p]-ATP by radiometric hotspot kinase.
For the next data set, the target named is Focal adhesion kinase 1 (Homo sapiens, UniProt Q05397).
The nature of another data set: physchem. To be noted: phosphate buffer, pH 7.4.
The nature of data set [15]: Efflux ratio of apparent permeability in human Caco-2 cells.
A short description of data set [16]: Apparent permeability in human Caco-2 cells.
Data set [17] can be described thus: Thermodynamic solubility of the compound in phosphate buffer at pH 7.4.
Data set [18] can be described thus: Metabolic stability in mouse liver microsomes assessed as intrinsic clearance.
Data set [19] can be described thus: Clearance in mouse hepatocytes measured per million of cells.
Data set [20] can be described thus: Clearance in human hepatocytes measured per million of cells.
Data set [21] in a line: Metabolic stability in human liver microsomes assessed as intrinsic clearance.
The target in data set [22] is T5, SRSF protein kinase 1. As to conditions: time 10.0 min.
The target of data set [23] is T4, SRSF protein kinase 2. To be noted: time 10.0 min.
Target sequence in this assay (P78362 whole entry, looked up, the tested form may be a part): as the sequence (P78362 whole entry, the tested form may be a part) above
In data set [24] the target is T3, SRSF protein kinase 3. To be noted: time 10.0 min.

≈ marks a conversion by molar mass, not a printed value. A value given as a limit tells only on which side of the number the result lay.

Chain of Dual specificity protein kinase CLK4 (Q9HAZ1 whole entry): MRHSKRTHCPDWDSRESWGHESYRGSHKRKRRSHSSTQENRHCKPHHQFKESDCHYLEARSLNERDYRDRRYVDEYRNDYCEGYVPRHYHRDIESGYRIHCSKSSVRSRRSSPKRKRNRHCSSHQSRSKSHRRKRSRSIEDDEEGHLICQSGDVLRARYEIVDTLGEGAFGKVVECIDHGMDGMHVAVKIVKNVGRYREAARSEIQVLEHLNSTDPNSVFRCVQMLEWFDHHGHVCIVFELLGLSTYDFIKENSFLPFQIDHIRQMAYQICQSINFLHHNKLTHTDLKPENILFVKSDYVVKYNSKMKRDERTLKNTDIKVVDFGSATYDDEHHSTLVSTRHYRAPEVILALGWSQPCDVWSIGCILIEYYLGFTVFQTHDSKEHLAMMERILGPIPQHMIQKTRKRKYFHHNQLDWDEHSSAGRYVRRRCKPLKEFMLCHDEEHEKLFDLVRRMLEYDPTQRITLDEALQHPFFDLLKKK
Chain of Dual specificity protein kinase CLK1 (P49759 whole entry): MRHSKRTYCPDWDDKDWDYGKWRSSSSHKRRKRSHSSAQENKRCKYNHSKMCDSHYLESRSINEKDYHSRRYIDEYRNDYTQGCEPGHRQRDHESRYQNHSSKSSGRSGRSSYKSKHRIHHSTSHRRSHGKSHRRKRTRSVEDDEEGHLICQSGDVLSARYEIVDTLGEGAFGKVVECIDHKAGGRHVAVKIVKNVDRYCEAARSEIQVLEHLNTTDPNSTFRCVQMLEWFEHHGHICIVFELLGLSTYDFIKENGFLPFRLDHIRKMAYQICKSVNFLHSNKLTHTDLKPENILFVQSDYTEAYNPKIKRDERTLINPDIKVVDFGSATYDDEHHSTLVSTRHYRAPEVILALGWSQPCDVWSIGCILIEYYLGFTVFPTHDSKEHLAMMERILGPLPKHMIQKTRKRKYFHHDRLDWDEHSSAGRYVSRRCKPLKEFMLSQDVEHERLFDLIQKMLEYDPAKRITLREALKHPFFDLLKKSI
Chain of Dual specificity protein kinase CLK2 (P49760 whole entry): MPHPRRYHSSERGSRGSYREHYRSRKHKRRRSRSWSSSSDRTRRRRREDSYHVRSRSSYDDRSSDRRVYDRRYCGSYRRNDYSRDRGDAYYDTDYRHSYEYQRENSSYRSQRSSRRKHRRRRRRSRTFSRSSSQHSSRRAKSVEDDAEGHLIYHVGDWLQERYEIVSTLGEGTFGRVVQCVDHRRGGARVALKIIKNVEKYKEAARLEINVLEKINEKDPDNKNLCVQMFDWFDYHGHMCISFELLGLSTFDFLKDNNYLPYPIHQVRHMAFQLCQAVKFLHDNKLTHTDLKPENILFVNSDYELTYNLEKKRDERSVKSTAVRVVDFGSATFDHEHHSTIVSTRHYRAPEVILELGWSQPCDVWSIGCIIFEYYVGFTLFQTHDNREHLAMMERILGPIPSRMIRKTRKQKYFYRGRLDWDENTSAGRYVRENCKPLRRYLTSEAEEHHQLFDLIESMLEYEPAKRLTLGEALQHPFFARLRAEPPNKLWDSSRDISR
Chain of Dual specificity tyrosine-phosphorylation-regulated kinase 1B (Q9Y463 whole entry): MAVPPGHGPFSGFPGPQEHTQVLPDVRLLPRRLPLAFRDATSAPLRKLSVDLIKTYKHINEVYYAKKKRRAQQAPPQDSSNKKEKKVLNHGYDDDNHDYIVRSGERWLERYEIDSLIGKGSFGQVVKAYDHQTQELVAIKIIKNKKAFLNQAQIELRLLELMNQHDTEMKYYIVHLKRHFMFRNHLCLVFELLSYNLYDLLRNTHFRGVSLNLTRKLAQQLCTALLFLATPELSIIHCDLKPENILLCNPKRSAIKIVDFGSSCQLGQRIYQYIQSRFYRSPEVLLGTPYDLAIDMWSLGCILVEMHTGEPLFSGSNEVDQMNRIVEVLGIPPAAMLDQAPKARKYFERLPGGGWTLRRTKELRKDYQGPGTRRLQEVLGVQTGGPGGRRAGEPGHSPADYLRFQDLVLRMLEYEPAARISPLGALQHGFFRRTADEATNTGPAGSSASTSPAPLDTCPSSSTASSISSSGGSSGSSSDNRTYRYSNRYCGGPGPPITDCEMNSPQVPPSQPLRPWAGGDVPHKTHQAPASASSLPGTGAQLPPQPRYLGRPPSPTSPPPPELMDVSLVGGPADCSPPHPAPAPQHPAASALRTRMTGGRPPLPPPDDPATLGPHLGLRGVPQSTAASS
Description for Focal adhesion kinase 1: Inhibition of N-terminal NanoLuc-tagged full length FAK (unknown origin) transfected in HEK293T cells pre-incubated with compound for 2 hrs followed by Nano-Glo substrate addition by NanoBRET analysis

Take `O=C(Nc1cc(C(F)(F)F)ccc1N1CCCCC1)c1ccncc1`: the IC50 in data set [1] is above 10 µM; in data set [2] it was above 10 µM; in data set [3], above 10000 nM; in [4], above 10 µM; in data set [5] it was above 10 µM; in data set [6] it was above 10000 nM. In addition, the IC50 on SRSF protein kinase 2 [10] was 1510 nM; at SRSF protein kinase 3 [11] it was 27 nM; on SRSF protein kinase 1 [12], 83 nM; in data set [13] it was above 10000 nM; in data set [14], above 10 µM. Besides, the EC50 at SRSF protein kinase 3 [7] is 0.398 µM; at SRSF protein kinase 2 [8], 2560 nM; at SRSF protein kinase 1 [9] it was 2360 nM.
As for `CCc1cc2c(cc1-c1cccc(S(=O)(=O)F)c1)C(C)(C)c1[nH]c3cc(C#N)ccc3c1C2=O`, the IC50 in data set [1] is 5.72 µM; in data set [3], 225 nM; in data set [4], above 30 µM; in data set [5] it was 6.78 µM; in data set [6], 293 nM; against SRSF protein kinase 2 [10], 2.54 nM. The IC50 on SRSF protein kinase 3 [11] came out at 4.81 nM; against SRSF protein kinase 1 [12] it was 1.68 nM; in [13], 159 nM; in data set [14] it was 0.92 µM.
`c1ccc(-c2nc3ccccc3[nH]2)nc1` showed an EC50 on Focal adhesion kinase 1 of 103 µM.
In the case of `CN(c1ncccc1CNc1ccnc(-c2cc3cc(Cl)ccc3[nH]2)n1)S(C)(=O)=O`, the solubility (kinetic) at 2 h in the data set “physchem” stood at 2.3 µM (≈ 1.02 µg/mL). Besides, the efflux ratio in data set [15] turned out to be 1.6. The Papp in data set [16] came to 2 ×10⁻⁶ cm/s. The compound also gave a thermodynamic solubility in data set [17] below 1 µg/mL. In addition, the CLint in data set [18] was determined as 784 µL/min/mg; in data set [21], 771 µL/min/mg. In addition, the values for the hepatocyte CLint in data set [19] and in [20] were 1100 µL/min/1e6 cells and 156 µL/min/1e6 cells, respectively. Further, the IC50 at SRSF protein kinase 2 [10] and against SRSF protein kinase 1 [12] was above 10000 nM in each case.
As for `c1ccc(-c2nn[nH]n2)nc1`, the midpoint of the response at Focal adhesion kinase 1, the EC50, lay at 253 µM.
Take `CN(c1ncccc1CNc1ccnc(-c2nc3c(F)c(Cl)ccc3[nH]2)n1)S(C)(=O)=O`: the kinetic solubility at 2 h in “physchem” was below 2 µM. Besides, the IC50 in data set [1] is above 10 µM; in [2] it was above 10 µM; in [3] it was above 10000 nM; in data set [4] it was above 10 µM; in [5], above 10 µM; in data set [6], above 10000 nM. Moreover, the IC50 was above 10000 nM in [13] and above 10 µM in data set [14]. The ΔTm at SRSF protein kinase 1 [22] stood at 9.1 °C; on SRSF protein kinase 2 [23], 4 °C; at SRSF protein kinase 3 [24] it was 9.6 °C. The Papp in [16] is 7.2 ×10⁻⁶ cm/s. This compound showed a solubility (thermodynamic) in data set [17] below 1 µg/mL. The CLint in data set [18] is 196 µL/min/mg; in data set [21], 504 µL/min/mg. Further, the hepatocyte CLint in [19] is 354 µL/min/1e6 cells; in data set [20], 51 µL/min/1e6 cells.
As to `O=C(Nc1cc(C(F)(F)F)ccc1N1CCN(Cc2ccccn2)CC1)c1ccc(-c2ccncc2)o1`, the IC50 in data set [1] was above 10 µM; in data set [2], 0.839 µM; in data set [3] it was 1580 nM; in data set [4] it was above 10 µM; in [5], above 10 µM; in [6] it was 1840 nM. Also, the IC50 against SRSF protein kinase 2 [10] was 256 nM; at SRSF protein kinase 3 [11] it was 166 nM; in data set [13], 266 nM; in [14], 5.7 µM. Further, the EC50 amounted to 6.15 µM at SRSF protein kinase 3 [7] and 648 nM at SRSF protein kinase 2 [8].

(Values after ChEMBL document CHEMBL5321194 (J Med Chem, 2023).)
